Test results from PubChem BioAssay (NCI).
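Values below derive from 48-hour exposures of cells grown in 96-well plates, with endpoints linearly interpolated between the two concentrations bracketing the appropriate inhibition level. TGI marks complete inhibition of growth.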

Assays:
Assay in all cases: NCI tumour cell line growth inhibition, 48 h
786-0 renal = system: 786-0 renal
A498 renal = system: A498 renal
A549 NSCLC = system: A549 NSCLC
ACHN renal = system: ACHN renal
BT-549 breast = system: BT-549 breast
CAKI-1 renal = system: CAKI-1 renal
CCRF-CEM leukemia = system: CCRF-CEM leukemia
COLO 205 colon = system: COLO 205 colon
DU-145 prostate = system: DU-145 prostate
EKVX NSCLC = system: EKVX NSCLC
HCC-2998 colon = system: HCC-2998 colon
HCT-116 colon = system: HCT-116 colon
HCT-15 colon = system: HCT-15 colon
HL-60(TB) leukemia = system: HL-60(TB) leukemia
HOP-62 NSCLC = system: HOP-62 NSCLC
HOP-92 NSCLC = system: HOP-92 NSCLC
HS 578T breast = system: HS 578T breast
HT29 colon = system: HT29 colon
IGROV1 ovarian = system: IGROV1 ovarian
K-562 leukemia = system: K-562 leukemia
KM12 colon = system: KM12 colon
LOX IMVI melanoma = system: LOX IMVI melanoma
M14 melanoma = system: M14 melanoma
MALME-3M melanoma = system: MALME-3M melanoma
MCF7 breast = system: MCF7 breast
MDA-MB-231 breast = system: MDA-MB-231 breast
MDA-MB-435 = system: MDA-MB-435
MDA-N = system: MDA-N
MOLT-4 leukemia = system: MOLT-4 leukemia
NCI-H226 lung = system: NCI-H226 lung
NCI-H23 lung = system: NCI-H23 lung
NCI-H460 lung = system: NCI-H460 lung
NCI-H522 lung = system: NCI-H522 lung
NCI/ADR-RES ovarian = system: NCI/ADR-RES ovarian
OVCAR-3 ovarian = system: OVCAR-3 ovarian
OVCAR-4 ovarian = system: OVCAR-4 ovarian
OVCAR-5 ovarian = system: OVCAR-5 ovarian
OVCAR-8 ovarian = system: OVCAR-8 ovarian
PC-3 prostate = system: PC-3 prostate
RPMI-8226 leukemia = system: RPMI-8226 leukemia
RXF 393 renal = system: RXF 393 renal
SF-268 CNS = system: SF-268 CNS
SF-295 CNS = system: SF-295 CNS
SF-539 CNS = system: SF-539 CNS
SK-MEL-2 melanoma = system: SK-MEL-2 melanoma
SK-MEL-28 melanoma = system: SK-MEL-28 melanoma
SK-MEL-5 melanoma = system: SK-MEL-5 melanoma
SK-OV-3 ovarian = system: SK-OV-3 ovarian
SN12C renal = system: SN12C renal
SNB-19 CNS = system: SNB-19 CNS
SNB-75 CNS = system: SNB-75 CNS
SR leukemia = system: SR leukemia
SW-620 colon = system: SW-620 colon
T-47D breast = system: T-47D breast
TK-10 renal = system: TK-10 renal
U251 CNS = system: U251 CNS
UACC-257 melanoma = system: UACC-257 melanoma
UACC-62 melanoma = system: UACC-62 melanoma
UO-31 renal = system: UO-31 renal

With Fc1ccc(N2C(=S)SC(=Nc3ccccc3)C2=Nc2ccccc2)cc1 the TGI (786-0 renal) was over 100 µM, the TGI (A498 renal) was over 100 µM and the TGI (A549 NSCLC) was over 100 µM. For the same molecule, the TGI (ACHN renal) was over 100 µM, the TGI (BT-549 breast) was over 100 µM and the TGI (CAKI-1 renal) was over 100 µM. For the same molecule, the TGI (CCRF-CEM leukemia) was over 46.4 µM, the TGI (COLO 205 colon) was over 100 µM and the TGI (DU-145 prostate) was over 100 µM. It also gave a TGI (EKVX NSCLC) of over 100 µM, a TGI (HCC-2998 colon) of over 100 µM and a TGI (HCT-116 colon) of over 100 µM. For the same molecule, the TGI (HCT-15 colon) was over 100 µM, the TGI (HL-60(TB) leukemia) was over 100 µM and the TGI (HOP-62 NSCLC) was over 100 µM. It also gave a TGI (HOP-92 NSCLC) of over 100 µM, a TGI (HS 578T breast) of over 100 µM and a TGI (HT29 colon) of over 100 µM. The TGI (IGROV1 ovarian) was over 100 µM, the TGI (K-562 leukemia) was over 100 µM and the TGI (KM12 colon) was over 100 µM. For the same molecule, the TGI (LOX IMVI melanoma) was over 100 µM, the TGI (M14 melanoma) was over 100 µM and the TGI (MALME-3M melanoma) was over 100 µM. For the same molecule, the TGI (MCF7 breast) was over 100 µM, the TGI (MDA-MB-231 breast) was over 100 µM and the TGI (MDA-MB-435) was over 100 µM. For the same molecule, the TGI (MDA-N) was over 100 µM, the TGI (MOLT-4 leukemia) was over 100 µM and the TGI (NCI-H226 lung) was over 100 µM. The TGI (NCI-H23 lung) was over 100 µM, the TGI (NCI-H460 lung) was over 100 µM and the TGI (NCI-H522 lung) was over 100 µM. For the same molecule, the TGI (NCI/ADR-RES ovarian) was over 100 µM, the TGI (OVCAR-3 ovarian) was over 100 µM and the TGI (OVCAR-4 ovarian) was over 100 µM. It also gave a TGI (OVCAR-5 ovarian) of over 100 µM, a TGI (OVCAR-8 ovarian) of over 100 µM and a TGI (PC-3 prostate) of over 100 µM. The TGI (RPMI-8226 leukemia) was over 100 µM, the TGI (RXF 393 renal) was over 100 µM and the TGI (SF-268 CNS) was over 100 µM. The TGI (SF-295 CNS) was over 100 µM, the TGI (SF-539 CNS) was over 100 µM and the TGI (SK-MEL-2 melanoma) was over 100 µM. It also gave a TGI (SK-MEL-28 melanoma) of over 100 µM, a TGI (SK-MEL-5 melanoma) of over 100 µM and a TGI (SK-OV-3 ovarian) of over 100 µM. For the same molecule, the TGI (SN12C renal) was over 100 µM, the TGI (SNB-19 CNS) was over 100 µM and the TGI (SNB-75 CNS) was over 100 µM. For the same molecule, the TGI (SR leukemia) was over 100 µM, the TGI (SW-620 colon) was over 100 µM and the TGI (T-47D breast) was over 100 µM. It also gave a TGI (TK-10 renal) of over 100 µM, a TGI (U251 CNS) of over 100 µM and a TGI (UACC-257 melanoma) of over 100 µM. For the same molecule, the TGI (UACC-62 melanoma) was over 100 µM and the TGI (UO-31 renal) was over 100 µM.
c1cnc2c(c1)ccc1cccnc12 was tested, and the TGI (786-0 renal) was over 100 µM, the TGI (A498 renal) was over 100 µM and the TGI (A549 NSCLC) was over 100 µM. It also gave a TGI (ACHN renal) of over 100 µM, a TGI (BT-549 breast) of over 100 µM and a TGI (CAKI-1 renal) of 27.3 µM. For the same molecule, the TGI (CCRF-CEM leukemia) was 5.5 µM, the TGI (COLO 205 colon) was over 83.3 µM and the TGI (DU-145 prostate) was over 100 µM. It also gave a TGI (EKVX NSCLC) of over 78.6 µM, a TGI (HCC-2998 colon) of over 62.4 µM and a TGI (HCT-116 colon) of over 100 µM. The TGI (HCT-15 colon) was over 100 µM, the TGI (HL-60(TB) leukemia) was 3.04 µM and the TGI (HOP-62 NSCLC) was over 100 µM. It also gave a TGI (HOP-92 NSCLC) of over 100 µM, a TGI (HS 578T breast) of 97.8 µM and a TGI (HT29 colon) of over 100 µM. It also gave a TGI (IGROV1 ovarian) of over 100 µM, a TGI (K-562 leukemia) of over 52.7 µM and a TGI (KM12 colon) of over 100 µM. It also gave a TGI (LOX IMVI melanoma) of over 100 µM, a TGI (M14 melanoma) of over 26.9 µM and a TGI (MALME-3M melanoma) of over 35.3 µM. For the same molecule, the TGI (MCF7 breast) was over 100 µM, the TGI (MDA-MB-231 breast) was over 100 µM and the TGI (MDA-MB-435) was over 100 µM. It also gave a TGI (MDA-N) of over 100 µM, a TGI (MOLT-4 leukemia) of 8.37 µM and a TGI (NCI-H226 lung) of over 23.5 µM. The TGI (NCI-H23 lung) was over 100 µM, the TGI (NCI-H460 lung) was 7.98 µM and the TGI (NCI-H522 lung) was over 100 µM. For the same molecule, the TGI (NCI/ADR-RES ovarian) was over 74.7 µM, the TGI (OVCAR-3 ovarian) was over 86.6 µM and the TGI (OVCAR-4 ovarian) was over 88.4 µM. The TGI (OVCAR-5 ovarian) was over 100 µM, the TGI (OVCAR-8 ovarian) was over 100 µM and the TGI (PC-3 prostate) was over 100 µM. It also gave a TGI (RPMI-8226 leukemia) of 7.89 µM, a TGI (RXF 393 renal) of over 100 µM and a TGI (SF-268 CNS) of over 100 µM. It also gave a TGI (SF-295 CNS) of over 100 µM, a TGI (SF-539 CNS) of over 100 µM and a TGI (SK-MEL-2 melanoma) of over 100 µM. The TGI (SK-MEL-28 melanoma) was over 100 µM, the TGI (SK-MEL-5 melanoma) was over 34 µM and the TGI (SK-OV-3 ovarian) was over 100 µM. It also gave a TGI (SN12C renal) of over 28.2 µM, a TGI (SNB-19 CNS) of over 100 µM and a TGI (SNB-75 CNS) of over 39.7 µM. It also gave a TGI (SR leukemia) of 4.26 µM, a TGI (SW-620 colon) of over 100 µM and a TGI (T-47D breast) of over 100 µM. The TGI (TK-10 renal) was over 92 µM, the TGI (U251 CNS) was over 100 µM and the TGI (UACC-257 melanoma) was over 31.5 µM. The TGI (UACC-62 melanoma) was over 100 µM and the TGI (UO-31 renal) was over 49.5 µM.
